“Also recorded” adds a separate entry of the source. Like-named read-outs stand apart in the source and are kept apart here.
Tested on: FADD-deficient Jurkat cells
Experiment: necroptosis assay: FADD-deficient Jurkat cells treated with TNFα, cell viability
Format: cell-based, human
Settings: for activity in the necroptosis assay, in words / Max Prot: FADD-deficient Jurkat cells treated with TNFα; for EC50: effective concentration for half-maximum response, inhibition of necroptosis in FADD-deficient Jurkat cells treated with TNFα; for Max Prot: max viability obtained in the presence of a compound; call rule not given here
Excerpt: Herein we describe the structure activity analysis of Nec-5 analogs.

COc1ccc(-n2c(SC)nc3sc4ccccc4c3c2=O)cc1 [Compound 90]
activity in the necroptosis assay, in words: potent inhibitor
EC50 (read-out: EC50): 240 nM
Max Prot: 77%

COc1ccc(CSc2nc3sc4c(c3c(=O)n2-c2ccc(OC)cc2)CCCC4)cc1 [Compound 16]
EC50: inactive

Cc1ccc(-n2c(SCC#N)nc3sc4c(c3c2=O)CCCC4)cc1 [Compound 38]
activity in the necroptosis assay, in words: retained some activity
EC50 (read-out: EC50): 1800 nM
Max Prot: 48.6%

N#CCSc1nc2sc3c(c2c(=O)n1-c1ccc(F)c(F)c1)CCCC3 [Compound 45]
EC50: inactive

CSc1nc2sccc2c(=O)n1-c1ccccc1 [Compound 173]
EC50: inactive

N#CCSc1nc2sc3ccccc3c2c(=O)n1-c1ccc2c(c1)OCO2 [Compound 146]
activity in the necroptosis assay, in words: potent inhibitor
EC50 (read-out: EC50): 270 nM
Max Prot: 100%

Cc1sc2nc(SCC#N)n(-c3ccc(OCc4ccccc4)cc3)c(=O)c2c1C [Compound 155]
EC50: inactive

COc1ccc(-n2c(SCC(C)O)nc3sc4c(c3c2=O)CCCC4)cc1 (centres unmarked) [Compound 28]
EC50: inactive

N#CCSc1nc2sc3c(c2c(=O)n1-c1ccc(F)cc1)CCC3 [Compound 121]
EC50 (read-out: EC50): 890 nM
Max Prot: 88.7%

COc1ccc(-n2c(SC)nc3sc4c(c3c2=O)CCCC4)c(OC)c1 [Compound 57]
EC50: inactive

CSc1cccc(-n2c(SC)nc3sc4c(c3c2=O)CCCC4)c1 [Compound 60]
EC50: inactive

C=CCSc1nc2sc3c(c2c(=O)n1-c1ccccc1)CCCC3 [Compound 170]
EC50: inactive

CCc1c(C)sc2nc(SCC#N)n(-c3ccc(OC)cc3)c(=O)c12 [Compound 72]
activity in the necroptosis assay, in words: preserved activity to a significant extent
EC50 (read-out: EC50): 1080 nM
Max Prot: 100%

C#CCSc1nc2sc(CCC)c(C)c2c(=O)n1-c1ccc(OC)cc1 [Compound 108]
EC50: inactive

C#CCSc1nc2sc3c(c2c(=O)n1-c1ccc(OC)cc1)CCC3 [Compound 98]
EC50 (read-out: EC50): 2490 nM
Max Prot: 63.4%

CCCCCCCCCCCCCCc1sc2nc(SC)n(-c3ccc(OC)cc3)c(=O)c2c1C [Compound 86]
EC50: inactive

C#CCSc1nc2sc(C)c(C)c2c(=O)n1-c1ccc2c(c1)OCO2 [Compound 176]
EC50: inactive

CSc1nc2sc3ccccc3c2c(=O)n1-c1ccc(F)cc1 [Compound 150]
EC50 (read-out: EC50): 3060 nM

N#CCSc1nc2sc3c(c2c(=O)n1-c1ccccc1)CCCC3 [Compound 32]
activity in the necroptosis assay, in words: inactive
EC50: inactive

COc1ccc(-n2c(SCC(=O)O)nc3sc(C)c(C)c3c2=O)cc1 [Compound 118]
EC50: inactive

Cc1sc2nc(SCC#N)n(-c3ccc4c(c3)OCO4)c(=O)c2c1C [Compound 127]
EC50 (read-out: EC50): 1650 nM
Max Prot: 100%

CSc1ccc(-n2c(SCC#N)nc3sc4c(c3c2=O)CCCC4)cc1 [Compound 49]
EC50 (read-out: EC50): 2330 nM
Max Prot: 70.0%

CCSc1nc2sc3c(c2c(=O)n1-c1ccccc1)CCCCC3 [Compound 175]
EC50: inactive

COc1ccc(-n2c(SCc3ccc([N+](=O)[O-])cc3)nc3sc4c(c3c2=O)CCC4)cc1 [Compound 100]
EC50: inactive

CCc1c(C)sc2nc(SCC#N)n(-c3ccc4c(c3)OCO4)c(=O)c12 [Compound 128]
EC50 (read-out: EC50): 1900 nM
Max Prot: 100%

CSc1nc2sc3c(c2c(=O)n1-c1ccc(Cl)cc1C)CCCC3 [Compound 61]
EC50: inactive

N#CCSc1nc2sc3c(c2c(=O)n1-c1ccccc1)CCC3 [Compound 163]
EC50: inactive

COc1ccc(-n2c(SC)nc3sc(C(C)C)c(C)c3c2=O)cc1 [Compound 85]
EC50: inactive

COc1ccc(-n2c(SCC#N)nc3sc4ccccc4c3c2=O)cc1 [Compound 76]
activity in the necroptosis assay, in words: retained most of the activity; also recorded: showed substantial activity; also recorded: showed good activity; also recorded: potent inhibitor; also recorded: exhibited a certain degree of activity
EC50 (read-out: EC50): 180 nM
Max Prot: 83.3%

N#CCSc1nc2sc3c(c2c(=O)n1-c1ccc2c(c1)OCO2)CCC3 [Compound 129]
EC50 (read-out: EC50): 1180 nM
Max Prot: 100%

CCSc1nc2sc(C)c(C)c2c(=O)n1-c1ccc(OC)cc1 [Compound 110]
activity in the necroptosis assay, in words: inactive
EC50: inactive

N#CCSc1nc2sc3c(c2c(=O)n1-c1cccc(Cl)c1)CCCC3 [Compound 40]
EC50 (read-out: EC50): 5100 nM
Max Prot: 66.9%

CCOc1ccc(-n2c(SC)nc3sc4c(c3c2=O)CCC4)cc1 [Compound 178]
EC50: inactive

N#CCSc1nc2sccc2c(=O)n1-c1ccccc1 [Compound 162]
EC50: inactive

CSc1nc2sc(C)c(C)c2c(=O)n1-c1ccc(OCc2ccccc2)cc1 [Compound 159]
EC50: inactive

CCOc1ccc(-n2c(SCC#N)nc3sc4ccccc4c3c2=O)cc1 [Compound 145]
EC50: inactive

COc1ccc(-n2c(SC)nc3sc4c(c3c2=O)CCC4)cc1 [Compound 87]
activity in the necroptosis assay, in words: displayed higher activity than each change separately enacted
EC50 (read-out: EC50): 240 nM
Max Prot: 97.0%

COc1ccc(-n2c(SCC#N)nc3sc4c(c3c2=O)CCN(C(C)C)C4)cc1 [Compound 78]
activity in the necroptosis assay, in words: essentially inactive
EC50: inactive

CSc1nc2sc3c(c2c(=O)n1-c1ccc2c(c1)OCO2)CCCC3 [Compound 59]
EC50: inactive

COc1ccc(-n2c(S(C)(=O)=O)nc3sc4c(c3c2=O)CCCC4)cc1 [Compound 31]
activity in the necroptosis assay, in words: complete loss of activity
EC50: inactive

COc1ccc(-n2c(SC)nc3sccc3c2=O)cc1 [Compound 79]
EC50: inactive

COc1ccc(-n2c(SCC#N)nc3scc(C)c3c2=O)cc1 [Compound 66]
EC50: inactive

COc1cccc(-n2c(SCC#N)nc3sc4c(c3c2=O)CCCC4)c1 [Compound 34]
EC50 (read-out: EC50): 1460 nM
Max Prot: 87.7%

COc1ccc(-n2c(SC)nc3sc4c(c3c2=O)CCN(C(C)C)C4)cc1 [Compound 92]
EC50: inactive

CSc1nc2sc(C)c(C)c2c(=O)n1-c1ccc(N(C)C)cc1 [Compound 161]
EC50: inactive

CCCCCSc1nc2sc3c(c2c(=O)n1-c1ccc(OC)cc1)CCCC3 [Compound 10]
EC50: inactive

CCCSc1nc2sc3c(c2c(=O)n1-c1ccc(OC)cc1)CCCC3 [Compound 8]
EC50: inactive

CSc1nc2sc(C)c(C)c2c(=O)n1-c1ccc(C)c(C)c1 [Compound 140]
EC50: inactive

Cc1cc(Cl)ccc1-n1c(SCC#N)nc2sc3c(c2c1=O)CCCC3 [Compound 50]
EC50: inactive

CSc1nc2sc3ccccc3c2c(=O)n1-c1ccc(OC(F)(F)F)cc1 [Compound 153]
EC50: inactive

C#CCSc1nc2sc3c(c2c(=O)n1-c1ccc(OC)cc1)CCCCC3 [Compound 109]
EC50: inactive

Cc1sc2nc(SCC#N)n(-c3ccc4c(c3)OCCO4)c(=O)c2c1C [Compound 136]
EC50 (read-out: EC50): 250 nM
Max Prot: 100%

CCSc1nc2sc3c(c2c(=O)n1-c1ccc(OC)cc1)CCC3 [Compound 93]
EC50: inactive

CCCCCCCCCCCCCCc1sc2nc(SCC#N)n(-c3ccc(OC)cc3)c(=O)c2c1C [Compound 71]
EC50: inactive

COc1ccc(-n2c(SC)nc3sc4c(c3c2=O)CCCCC4)cc1 [Compound 88]
activity in the necroptosis assay, in words: lack of activity
EC50: inactive

COc1ccc(-n2c(SCc3ccccc3)nc3sc4c(c3c2=O)CCCC4)cc1 [Compound 14]
activity in the necroptosis assay, in words: completely destroyed the activity
EC50: inactive

C#CCSc1nc2sc(C)c(C)c2c(=O)n1-c1ccc(OC)cc1 [Compound 106]
activity in the necroptosis assay, in words: possess some activity
EC50 (read-out: EC50): 4860 nM
Max Prot: 90.3%

Cc1ccc(-n2c(SCC#N)nc3sc4c(c3c2=O)CCCC4)cc1C [Compound 43]
EC50 (read-out: EC50): 16700 nM
Max Prot: 45.0%

CSc1nc2sc3c(c2c(=O)n1-c1ccc(F)cc1)CCCC3 [Compound 53]
activity in the necroptosis assay, in words: showed some activity
EC50 (read-out: EC50): 1570 nM
Max Prot: 61.2%

CSc1nc2sc3c(c2c(=O)n1-c1ccc(OC(F)(F)F)cc1)CCCC3 [Compound 62]
EC50: inactive

C=CCSc1nc2sc3c(c2c(=O)n1-c1ccc(OC)cc1)CCCC3 [Compound 12]
EC50: inactive

COc1ccc(-n2c(SCC(C)=O)nc3sc4c(c3c2=O)CCC4)cc1 [Compound 101]
EC50: inactive

N#CCSc1nc2sc3ccccc3c2c(=O)n1-c1ccc(OC(F)(F)F)cc1 [Compound 147]
EC50: inactive

Cc1sc2nc(SCC#N)n(-c3ccc(OC(F)(F)F)cc3)c(=O)c2c1C [Compound 156]
EC50 (read-out: EC50): 3700 nM
Max Prot: 63%

N#CCSc1nc2sc3c(c2c(=O)n1-c1ccc(Cl)c(Cl)c1)CCCC3 [Compound 44]
EC50 (read-out: EC50): 5700 nM
Max Prot: 39.0%

COc1ccc(-n2c(SCC(N)=O)nc3sc4c(c3c2=O)CCCC4)cc1 [Compound 20]
EC50: inactive

COc1ccc(-n2c(SCC(=O)O)nc3sc4c(c3c2=O)CCCC4)cc1 [Compound 29]
EC50: inactive

C#CCSc1nc2sc(C)c(CC)c2c(=O)n1-c1ccc2c(c1)OCO2 [Compound 177]
EC50: inactive

C#CCSc1nc2sccc2c(=O)n1-c1ccc(OC)cc1 [Compound 104]
EC50: inactive

CCc1sc2nc(SC)n(-c3ccc(F)cc3)c(=O)c2c1C [Compound 124]
EC50: inactive

CCc1cc2c(=O)n(-c3ccc(OC)cc3)c(SCC#N)nc2s1 [Compound 65]
EC50: inactive

N#CCSc1nc2sc3c(c2c(=O)n1-c1ccc(F)cc1)CCCCC3 [Compound 122]
activity in the necroptosis assay, in words: completely lacked activity
EC50: inactive
